Reference: the NIST ThermoML archive (doi:10.1016/j.fluid.2010.10.008)
Numbers after ± are expanded uncertainties.

Assay: activity coefficient (dimensionless); of the first substance listed, at infinite dilution; xn = mol fraction of the nth substance listed
Details: Liquid, Chromatography, x1 = 0

Work on `COCCOC` [1,2-dimethoxyethane] + CCn1cc[n+](C)c1.CS(=O)(=O)[O-] yielded an activity coefficient (318.15 K) of 5.58 ± 0.38, an activity coefficient (323.15 K) of 5.62 ± 0.38 and an activity coefficient (333.15 K) of 5.69 ± 0.39. For the same compound, the activity coefficient (343.15 K) was 5.75 ± 0.39 and the activity coefficient (353.15 K) was 5.8 ± 0.4.
Compound `Cc1cccc(C)c1` [1,3-dimethylbenzene] + CCn1cc[n+](C)c1.CS(=O)(=O)[O-] has an activity coefficient (318.15 K) of 20.8 ± 2.2, an activity coefficient (323.15 K) of 20.5 ± 2.2 and an activity coefficient (333.15 K) of 19.9 ± 2.1. It also gave an activity coefficient (343.15 K) of 19.3 ± 2 and an activity coefficient (353.15 K) of 18.8 ± 2.
Work on `FC(F)(F)C(Cl)Br` (stereo not given) [1-bromo-1-chloro-2,2,2-trifluoroethane] + CCn1cc[n+](C)c1.CS(=O)(=O)[O-] yielded an activity coefficient (318.15 K) of 0.586 ± 0.042, an activity coefficient (323.15 K) of 0.632 ± 0.044 and an activity coefficient (333.15 K) of 0.739 ± 0.049. The activity coefficient (343.15 K) was 0.843 ± 0.054 and the activity coefficient (353.15 K) was 0.96 ± 0.06.
In the case of `COC(C)(C)C` [2-methoxy-2-methylpropane] + CCn1cc[n+](C)c1.CS(=O)(=O)[O-], the activity coefficient (318.15 K) is reported as 34.6 ± 2.4, the activity coefficient (323.15 K) is reported as 33.8 ± 2.3 and the activity coefficient (333.15 K) is reported as 32.6 ± 2.2. It also gave an activity coefficient (343.15 K) of 31.8 ± 2.2 and an activity coefficient (353.15 K) of 30.9 ± 2.1.
Compound `CC(C)=O` [acetone] + CCn1cc[n+](C)c1.CS(=O)(=O)[O-] has an activity coefficient (318.15 K) of 2.46 ± 0.17, an activity coefficient (323.15 K) of 2.47 ± 0.17 and an activity coefficient (333.15 K) of 2.47 ± 0.17. For the same compound, the activity coefficient (343.15 K) was 2.48 ± 0.17 and the activity coefficient (353.15 K) was 2.49 ± 0.17.
With `CC#N` [acetonitrile] + CCn1cc[n+](C)c1.CS(=O)(=O)[O-] the activity coefficient (318.15 K) was 0.862 ± 0.055, the activity coefficient (323.15 K) was 0.873 ± 0.056 and the activity coefficient (333.15 K) was 0.887 ± 0.056. For the same compound, the activity coefficient (343.15 K) was 0.9 ± 0.057 and the activity coefficient (353.15 K) was 0.912 ± 0.058.
Work on `c1ccccc1` [benzene] + CCn1cc[n+](C)c1.CS(=O)(=O)[O-] yielded an activity coefficient (318.15 K) of 4.51 ± 0.47, an activity coefficient (323.15 K) of 4.5 ± 0.47 and an activity coefficient (333.15 K) of 4.48 ± 0.47. The activity coefficient (343.15 K) was 4.48 ± 0.47 and the activity coefficient (353.15 K) was 4.46 ± 0.47.
`CCC(C)=O` [butanone] + CCn1cc[n+](C)c1.CS(=O)(=O)[O-] gave an activity coefficient (318.15 K) of 4.48 ± 0.31, an activity coefficient (323.15 K) of 4.46 ± 0.3 and an activity coefficient (333.15 K) of 4.48 ± 0.31. It also gave an activity coefficient (343.15 K) of 4.41 ± 0.3 and an activity coefficient (353.15 K) of 4.38 ± 0.3.
For `C1CCCCC1` [cyclohexane] + CCn1cc[n+](C)c1.CS(=O)(=O)[O-], the activity coefficient (318.15 K) was 123 ± 13, the activity coefficient (323.15 K) was 115 ± 12 and the activity coefficient (333.15 K) was 103 ± 11. The activity coefficient (343.15 K) was 93.2 ± 9.8 and the activity coefficient (353.15 K) was 84.3 ± 8.9.
Compound `ClCCl` [dichloromethane] + CCn1cc[n+](C)c1.CS(=O)(=O)[O-] has an activity coefficient (318.15 K) of 0.7 ± 0.047, an activity coefficient (323.15 K) of 0.727 ± 0.048 and an activity coefficient (333.15 K) of 0.78 ± 0.051. For the same compound, the activity coefficient (343.15 K) was 0.833 ± 0.054 and the activity coefficient (353.15 K) was 0.887 ± 0.056.
With `CC(C)OC(C)C` [diisopropyl ether] + CCn1cc[n+](C)c1.CS(=O)(=O)[O-] the activity coefficient (318.15 K) was 127 ± 26, the activity coefficient (323.15 K) was 122 ± 25 and the activity coefficient (333.15 K) was 114 ± 23. For the same compound, the activity coefficient (343.15 K) was 107 ± 22 and the activity coefficient (353.15 K) was 101 ± 20.
In the case of `COC(=O)OC` [dimethyl carbonate] + CCn1cc[n+](C)c1.CS(=O)(=O)[O-], the activity coefficient (318.15 K) is reported as 3.18 ± 0.22, the activity coefficient (323.15 K) is reported as 3.17 ± 0.22 and the activity coefficient (333.15 K) is reported as 3.16 ± 0.22. For the same compound, the activity coefficient (343.15 K) was 3.15 ± 0.21 and the activity coefficient (353.15 K) was 3.14 ± 0.21.
`CCO` [ethanol] + CCn1cc[n+](C)c1.CS(=O)(=O)[O-] gave an activity coefficient (318.15 K) of 0.513 ± 0.038, an activity coefficient (323.15 K) of 0.509 ± 0.038 and an activity coefficient (333.15 K) of 0.501 ± 0.038. It also gave an activity coefficient (343.15 K) of 0.496 ± 0.038 and an activity coefficient (353.15 K) of 0.493 ± 0.038.
In the case of `CCOC(C)=O` [ethyl acetate] + CCn1cc[n+](C)c1.CS(=O)(=O)[O-], the activity coefficient (318.15 K) is reported as 7.32 ± 0.5, the activity coefficient (323.15 K) is reported as 7.29 ± 0.5 and the activity coefficient (333.15 K) is reported as 7.22 ± 0.49. It also gave an activity coefficient (343.15 K) of 7.17 ± 0.49 and an activity coefficient (353.15 K) of 7.12 ± 0.49.
Work on `CCc1ccccc1` [ethylbenzene] + CCn1cc[n+](C)c1.CS(=O)(=O)[O-] yielded an activity coefficient (318.15 K) of 19.1 ± 2, an activity coefficient (323.15 K) of 18.8 ± 2 and an activity coefficient (333.15 K) of 18.3 ± 1.9. For the same compound, the activity coefficient (343.15 K) was 17.8 ± 1.9 and the activity coefficient (353.15 K) was 17.3 ± 1.8.
Work on `CCC1CCCCC1` [ethylcyclohexane] + CCn1cc[n+](C)c1.CS(=O)(=O)[O-] yielded an activity coefficient (318.15 K) of 344 ± 36, an activity coefficient (323.15 K) of 326 ± 34 and an activity coefficient (333.15 K) of 291 ± 31. The activity coefficient (343.15 K) was 262 ± 28 and the activity coefficient (353.15 K) was 237 ± 25.
Compound `CCCCCCC` [heptane] + CCn1cc[n+](C)c1.CS(=O)(=O)[O-] has an activity coefficient (318.15 K) of 637 ± 130, an activity coefficient (323.15 K) of 596 ± 120 and an activity coefficient (333.15 K) of 523 ± 110. For the same compound, the activity coefficient (343.15 K) was 471 ± 96 and the activity coefficient (353.15 K) was 422 ± 86.
`CO` [methanol] + CCn1cc[n+](C)c1.CS(=O)(=O)[O-] gave an activity coefficient (318.15 K) of 0.238 ± 0.029, an activity coefficient (323.15 K) of 0.239 ± 0.029 and an activity coefficient (333.15 K) of 0.242 ± 0.03. It also gave an activity coefficient (343.15 K) of 0.244 ± 0.03 and an activity coefficient (353.15 K) of 0.247 ± 0.03.
`COC(C)=O` [methyl ethanoate] + CCn1cc[n+](C)c1.CS(=O)(=O)[O-] showed an activity coefficient (318.15 K) of 3.59 ± 0.24, an activity coefficient (323.15 K) of 3.6 ± 0.25 and an activity coefficient (333.15 K) of 3.61 ± 0.25. The activity coefficient (343.15 K) was 3.63 ± 0.25 and the activity coefficient (353.15 K) was 3.66 ± 0.25.
Work on `CC1CCCCC1` [methylcyclohexane] + CCn1cc[n+](C)c1.CS(=O)(=O)[O-] yielded an activity coefficient (318.15 K) of 211 ± 22, an activity coefficient (323.15 K) of 198 ± 21 and an activity coefficient (333.15 K) of 177 ± 19. The activity coefficient (343.15 K) was 160 ± 17 and the activity coefficient (353.15 K) was 147 ± 16.
`C[N+](=O)[O-]` [nitromethane] + CCn1cc[n+](C)c1.CS(=O)(=O)[O-] showed an activity coefficient (318.15 K) of 0.612 ± 0.043, an activity coefficient (323.15 K) of 0.621 ± 0.043 and an activity coefficient (333.15 K) of 0.638 ± 0.044. It also gave an activity coefficient (343.15 K) of 0.653 ± 0.045 and an activity coefficient (353.15 K) of 0.668 ± 0.045.
For `C=CCCCCCC` [oct-1-ene] + CCn1cc[n+](C)c1.CS(=O)(=O)[O-], the activity coefficient (318.15 K) was 374 ± 26, the activity coefficient (323.15 K) was 356 ± 24 and the activity coefficient (333.15 K) was 325 ± 22. The activity coefficient (343.15 K) was 300 ± 21 and the activity coefficient (353.15 K) was 277 ± 19.
For `CCCCCCCC` [octane] + CCn1cc[n+](C)c1.CS(=O)(=O)[O-], the activity coefficient (318.15 K) was 1020 ± 110, the activity coefficient (323.15 K) was 949 ± 100 and the activity coefficient (333.15 K) was 839 ± 89. The activity coefficient (343.15 K) was 752 ± 79 and the activity coefficient (353.15 K) was 676 ± 71.
`CCCO` [propan-1-ol] + CCn1cc[n+](C)c1.CS(=O)(=O)[O-] gave an activity coefficient (318.15 K) of 0.801 ± 0.052, an activity coefficient (323.15 K) of 0.789 ± 0.051 and an activity coefficient (333.15 K) of 0.771 ± 0.05. It also gave an activity coefficient (343.15 K) of 0.754 ± 0.05 and an activity coefficient (353.15 K) of 0.742 ± 0.049.
Work on `CC(C)O` [propan-2-ol] + CCn1cc[n+](C)c1.CS(=O)(=O)[O-] yielded an activity coefficient (318.15 K) of 0.974 ± 0.061, an activity coefficient (323.15 K) of 0.958 ± 0.06 and an activity coefficient (333.15 K) of 0.933 ± 0.059. For the same compound, the activity coefficient (343.15 K) was 0.913 ± 0.058 and the activity coefficient (353.15 K) was 0.9 ± 0.057.
`ClC(Cl)(Cl)Cl` [tetrachloromethane] + CCn1cc[n+](C)c1.CS(=O)(=O)[O-] showed an activity coefficient (318.15 K) of 4.93 ± 0.34, an activity coefficient (323.15 K) of 5.08 ± 0.35 and an activity coefficient (333.15 K) of 5.36 ± 0.37. It also gave an activity coefficient (343.15 K) of 5.62 ± 0.38 and an activity coefficient (353.15 K) of 5.87 ± 0.4.
In the case of `C1CCOC1` [tetrahydrofuran] + CCn1cc[n+](C)c1.CS(=O)(=O)[O-], the activity coefficient (318.15 K) is reported as 5.37 ± 0.37, the activity coefficient (323.15 K) is reported as 5.33 ± 0.36 and the activity coefficient (333.15 K) is reported as 5.24 ± 0.36. The activity coefficient (343.15 K) was 5.18 ± 0.35 and the activity coefficient (353.15 K) was 5.1 ± 0.35.
`c1ccsc1` [thiophene] + CCn1cc[n+](C)c1.CS(=O)(=O)[O-] showed an activity coefficient (318.15 K) of 2.04 ± 0.14, an activity coefficient (323.15 K) of 2.06 ± 0.14 and an activity coefficient (333.15 K) of 2.11 ± 0.14. For the same compound, the activity coefficient (343.15 K) was 2.16 ± 0.15 and the activity coefficient (353.15 K) was 2.2 ± 0.15.
Compound `Cc1ccccc1` [toluene] + CCn1cc[n+](C)c1.CS(=O)(=O)[O-] has an activity coefficient (318.15 K) of 9.41 ± 0.99, an activity coefficient (323.15 K) of 9.37 ± 0.99 and an activity coefficient (333.15 K) of 9.23 ± 0.97. For the same compound, the activity coefficient (343.15 K) was 9.12 ± 0.96 and the activity coefficient (353.15 K) was 9 ± 0.95.
With `ClC(Cl)Cl` [trichloromethane] + CCn1cc[n+](C)c1.CS(=O)(=O)[O-] the activity coefficient (318.15 K) was 0.488 ± 0.037, the activity coefficient (323.15 K) was 0.515 ± 0.038 and the activity coefficient (333.15 K) was 0.572 ± 0.041. For the same compound, the activity coefficient (343.15 K) was 0.633 ± 0.044 and the activity coefficient (353.15 K) was 0.694 ± 0.047.
